The target of the test is HDM2 protein (Homo sapiens, UniProt Q00987). Kind of test: fluorescence polarization screening assay (FP IC50). It is filed as binding. The method, then: The compounds were evaluated to determine activity at the HDM2 protein by known methods such as the fluorescence polarization screening assay that measures the inhibitory concentration that achieves 50% of maximal activity (FP IC50) and the dissociation constant for inhibitor binding (FP Ki). [Zhang et al., J. Analytical Biochemistry 331: 138-146 (2004)].
Chain of HDM2 protein (Q00987 whole entry): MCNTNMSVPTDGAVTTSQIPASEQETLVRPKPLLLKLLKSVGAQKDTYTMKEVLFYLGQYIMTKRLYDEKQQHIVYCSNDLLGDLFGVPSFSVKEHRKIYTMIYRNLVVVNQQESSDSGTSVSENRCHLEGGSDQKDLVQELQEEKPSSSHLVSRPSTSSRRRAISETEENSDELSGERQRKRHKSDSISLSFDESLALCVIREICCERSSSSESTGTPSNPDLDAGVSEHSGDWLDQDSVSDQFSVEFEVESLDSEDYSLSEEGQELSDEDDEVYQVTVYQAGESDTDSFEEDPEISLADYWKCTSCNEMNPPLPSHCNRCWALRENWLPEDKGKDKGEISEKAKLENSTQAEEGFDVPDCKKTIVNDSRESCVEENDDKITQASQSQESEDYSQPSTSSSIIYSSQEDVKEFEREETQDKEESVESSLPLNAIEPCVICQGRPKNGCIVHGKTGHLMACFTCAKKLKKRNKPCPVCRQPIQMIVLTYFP
(Polarisation of emitted light reports the rotation of a fluorescent probe.)

Among the data in US9062071B2, “Substituted piperidines as HDM2 inhibitors” (Merck Sharp & Dohme Corp, priority 2011, dated 2015) are IC50 values, retold here.

The IC50 is the concentration that gives 50% inhibition. A lower IC50 goes with inhibition by little substance. In turn, `CCC[C@H]1N(C(=O)c2ncccc2C(F)(F)F)CCC[C@@]1(Oc1csc(C(F)(F)F)c1)C(=O)N1CCc2ccc(Br)cc2C1` [Compound A142, 7-bromo-2-{[(2R,3S)-2-propyl-1-{[3-(trifluoromethyl)pyridin-2-yl]carbonyl}-3-{[5-(trifluoromethyl)thiophen-3-yl]oxy}piperidin-3-yl]carbonyl}-1,2,3,4-tetrahydroisoquinoline] had an IC50 (class symbols) of 0.101 to 20 µM.

`CCC[C@H]1N(C(=O)c2ncccc2C(F)(F)F)CCC[C@@]1(Oc1csc(C(F)(F)F)c1)C(=O)N1CCc2sc(Cl)cc2C1CC(C)(C)C(=O)O` (stereo partly drawn) [Compound A26, 3-(2-chloro-5-{[(2R,3S)-2-propyl-1-{[3-(trifluoromethyl)pyridin-2-yl]carbonyl}-3-{[5-(trifluoromethyl)thiophen-3-yl]oxy}piperidin-3-yl]carbonyl}-4,5,6,7-tetrahydrothieno[3,2-c]pyridin-4-yl)-2,2-dimethylpropanoic acid] gave an IC50 (class symbols) of 0.001 to 0.1 µM.

The molecule `COCCN(CCOC)CC[C@H]1N(C(=O)c2cnccc2C(F)(F)F)CCC[C@@]1(Oc1csc(C(F)(F)F)c1)C(=O)N1CCc2ccc(Cl)cc2C1` [Compound A1, 2-[(2R,3S)-3-[(7-chloro-3,4-dihydroisoquinblin-2(1H)-yl)carbonyl]-1-{[4-(trifluoromethyl)byridin-3-yl]carbonyl}-3-{[5-(trifluoromethyl)thiophen-3-yl]oxy}piperidin-2-yl]-N,N-bis(2-methoxyethyl)ethanamine] yielded an IC50 (numeric value) of 472 µM.

Turning to `CCC[C@H]1N(C(=O)c2ncccc2C(F)(F)F)CCC[C@@]1(Oc1csc(C(F)(F)F)c1)C(=O)N1CCc2sc(Cl)cc2C1CN1CCCC1` (stereo partly drawn) [Compound A35, 2-chloro-5-{[(2R,3S)-2-propyl-1-{[3-(trifluoromethyl)pyridin-2-yl]carbonyl}-3-{[5-(trifluoromethyl)thiophen-3-yl]oxy}piperidin-3-yl]carbonyl}-4-(pyrrolidin-1-ylmethyl)-4,5,6,7-tetrahydrothieno[3,2-c]pyridine], under “class symbols”, the half-maximal inhibitory concentration (IC50) is 0.101 to 20 µM.

In turn, `CCC[C@H]1N(C(=O)c2ncccc2C(F)(F)F)CCC[C@@]1(Oc1csc(C(F)(F)F)c1)C(=O)N1Cc2ccc(Cl)cc2C[C@@H]1C(=O)N1CCC(O)CC1` [Compound A168, 1-{[(3R)-6-chloro-2-{[(2R,3S)-2-propyl-1-{[3-(trifluoromethyl)pyridin-2-yl]carbonyl}-3-{[5-(trifluoromethyl)thiophen-3-yl]oxy}piperidin-3-yl]carbonyl}-1,2,3,4-tetrahydroisoquinolin-3-yl]carbonyl}piperidin-4-ol] returned an IC50 (class symbols) of 0.001 to 0.1 µM.

Regarding `CCC[C@H]1N(C(=O)c2ncccc2C(F)(F)F)CCC[C@@]1(Oc1csc(C(F)(F)F)c1)C(=O)N1CCc2cc(Br)ccc2C1CC(=O)O` (stereo partly drawn) [Compound A70, (6-bromo-2-{[(2R,3S)-2-propyl-1-{[3-(trifluoromethyl)pyridin-2-yl]carbonyl}-3-{[5-(trifluoromethyl)thiophen-3-yl]oxy}piperidin-3-yl]carbonyl}-1,2,3,4-tetrahydroisoquinolin-1-yl)acetic acid], the IC50 (class symbols) was in the range of 0.001 to 0.1 µM.

In turn, `CCC[C@H]1N(C(=O)c2ncccc2C(F)(F)F)CCC[C@@]1(Oc1csc(C(F)(F)F)c1)C(=O)N1CCc2cc(Cl)ccc2C1CC(=O)N1CCNC(=O)C1` (stereo partly drawn) [Compound A84, 4-[(6-chloro-2-{[(2R,3S)-2-propyl-1-{[3-(trifluoromethyl)pyridin-2-yl]carbonyl}-3-{[5-(trifluoromethyl)thiophen-3-yl]oxy}piperidin-3-yl]carbonyl}-1,2,3,4-tetrahydroisoquinolin-1-yl)acetyl]piperazin-2-one] registered an IC50 (class symbols) of 0.001 to 0.1 µM.

As to `CCC[C@H]1N(C(=O)c2ncccc2C(F)(F)F)CCC[C@@]1(Oc1csc(C(F)(F)F)c1)C(=O)N1CCc2cc(Cl)ccc2C1CC(C)(C)C(=O)O` (stereo partly drawn) [Compound A108, 3-(6-chloro-2-{[(2R,3S)-2-propyl-1-{[3-(trifluoromethyl)pyridin-2-yl]carbonyl}-3-{[5-(trifluoromethyl)thiophen-3-yl]oxy}piperidin-3-yl]carbonyl}-1,2,3,4-tetrahydroisoquinolin-1-yl)-2,2-dimethylpropanoic acid], the IC50 (class symbols) was 0.001 to 0.1 µM.

Under “class symbols”, `CCC[C@H]1N(C(=O)c2ncccc2C(F)(F)F)CCC[C@@]1(Oc1csc(C(F)(F)F)c1)C(=O)N1CCc2cc(F)ccc2C1C(=O)N1CCN(CCO)CC1` (stereo partly drawn) [Compound A94, 2-{4-[(6-fluoro-2-{[(2R,3S)-2-propyl-1-{[3-(trifluoromethyl)pyridin-2-yl]carbonyl}-3-{[5-(trifluoromethyl)thiophen-3-yl]oxy}piperidin-3-yl]carbonyl}-1,2,3,4-tetrahydroisoquinolin-1-yl)carbonyl]piperazin-1-yl}ethanol] returned an IC50 of 0.101 to 20 µM.

Under “class symbols”, `CCC[C@H]1N(C(=O)c2ncccc2C(F)(F)F)CCC[C@@]1(Oc1csc(C(F)(F)F)c1)C(=O)N1CCc2cc(Cl)ccc2C1C(=O)O` (stereo partly drawn) [Compound A102, 6-chloro-2-{[(2R,3S)-2-propyl-1-{[3-(trifluoromethyl)pyridin-2-yl]carbonyl}-3-{[5-(trifluoromethyl)thiophen-3-yl]oxy}piperidin-3-yl]carbonyl}-1,2,3,4-tetrahydroisoquinoline-1-carboxylic acid] gave an IC50 of 0.001 to 0.1 µM.

As for `CCC[C@H]1N(C(=O)c2cnccc2C(F)(F)F)CCC[C@@]1(Oc1csc(C(F)(F)F)c1)C(=O)N1CCc2cccc(O)c2C1` [Compound A121, 2-{[(2R,3S)-2-propyl-1-{[4-(trifluoromethyl)pyridin-3-yl]carbonyl}-3-{[5-(trifluoromethyl)thiophen-3-yl]oxy}piperidin-3-yl]carbonyl}-1,2,3,4-tetrahydroisoquinolin-8-ol], where the note is “class symbols”, the IC50 lay in the range of 0.101 to 20 µM.

Take `CCC[C@H]1N(C(=O)c2ncccc2C(F)(F)F)CCC[C@@]1(Oc1csc(C(F)(F)F)c1)C(=O)N1CCc2cc(Cl)sc2C1CC(C)(C)C(=O)O` (stereo partly drawn) [Compound A31, 3-(2-chloro-6-{[(2R,3S)-2-propyl-1-{[3-(trifluoromethyl)pyridin-2-yl]carbonyl}-3-{[5-(trifluoromethyl)thiophen-3-yl]oxy}piperidin-3-yl]carbonyl}-4,5,6,7-tetrahydrothieno[2,3-c]pyridin-7-yl)-2,2-dimethylpropanoic acid]: under “class symbols”, the IC50 is 0.001 to 0.1 µM.

Where the note is “class symbols”, `CCC[C@H]1N(C(=O)c2ncccc2C(F)(F)F)CCC[C@@]1(Oc1csc(C(F)(F)F)c1)C(=O)N1CCc2cc(-c3ccccc3)ccc2C1` [Compound A62, 6-phenyl-2-{[(2R,3S)-2-propyl-1-{[3-(trifluoromethyl)pyridin-2-yl]carbonyl}-3-{[5-(trifluoromethyl)thiophen-3-yl]oxy}piperidin-3-yl]carbonyl}-1,2,3,4-tetrahydroisoquinoline] displayed an IC50 of 0.101 to 20 µM.

Molecule `CCC[C@H]1N(C(=O)c2ncccc2C(F)(F)F)CCC[C@@]1(Oc1csc(C(F)(F)F)c1)C(=O)N1CCc2sc(Cl)cc2C1C(=O)O` (stereo partly drawn) [Compound A13, 2-chloro-5-{[(2R,3S)-2-propyl-1-{[3-(trifluoromethyl)pyridin-2-yl]carbonyl}-3-{[5-(trifluoromethyl)thiophen-3-yl]oxy}piperidin-3-yl]carbonyl}-4,5,6,7-tetrahydrothieno[3,2-c]pyridine-4-carboxylic acid] had an IC50 (class symbols) of 0.001 to 0.1 µM.

Take `CCC[C@H]1N(C(=O)c2ncccc2C(F)(F)F)CCC[C@@]1(Oc1csc(C(F)(F)F)c1)C(=O)N1Cc2ccc(Cl)cc2C[C@@H]1C[C@H](COC)C(=O)O` [Compound A161, (2R)-3-[(3S)-6-chloro-2-{[(2R,3S)-2-propyl-1-{[3-(trifluoromethyl)pyridin-2-yl]carbonyl}-3-{[5-(trifluoromethyl)thiophen-3-yl]oxy}piperidin-3-yl]carbonyl}-1,2,3,4-tetrahydroisoquinolin-3-yl]-2-(methoxymethyl) propanoic acid]: for the setting “class symbols”, the IC50 is 0.001 to 0.1 µM.

Take `CCC[C@H]1N(C(=O)c2ncccc2C(F)(F)F)CCC[C@@]1(Oc1csc(C(F)(F)F)c1)C(=O)N1CCc2cc(Cl)ccc2C1CCC(=O)NCc1nn[nH]n1` (stereo partly drawn) [Compound A67, 3-(6-chloro-2-{[(2R,3S)-2-propyl-1-{[3-(trifluoromethyl)pyridin-2-yl]carbonyl}-3-{[5-(trifluoromethyl)thiophen-3-yl]oxy}piperidin-3-yl]carbonyl}-1,2,3,4-tetrahydroisoquinolin-1-yl)-N-(2H-tetrazol-5-ylmethyl)propanamide]: the IC50 (class symbols) is 0.001 to 0.1 µM.

For the setting “class symbols”, `CCC[C@H]1N(C(=O)c2ncccc2C(F)(F)F)CCC[C@@]1(Oc1csc(C(F)(F)F)c1)C(=O)N1CCc2cc(F)ccc2C1CCCCC(=O)O` (stereo partly drawn) [Compound A40, 5-(6-fluoro-2-{[(2R,3S)-2-propyl-1-{[3-(trifluoromethyl)pyridin-2-yl]carbonyl}-3-{[5-(trifluoromethyl)thiophen-3-yl]oxy}piperidin-3-yl]carbonyl}-1,2,3,4-tetrahydroisoquinolin-1-yl)pentanoic acid] yielded an IC50 of 0.001 to 0.1 µM.

Regarding `CCC[C@H]1N(C(=O)c2ncccc2C(F)(F)F)CCC[C@@]1(Oc1csc(C(F)(F)F)c1)C(=O)N1Cc2sccc2CC1C(=O)O` (stereo partly drawn) [Compound A173, 6-{[(2R,3S)-2-propyl-1-{[3-(trifluoromethyl)pyridin-2-yl]carbonyl}-3-{[5-(trifluoromethyl)thiophen-3-yl]oxy}piperidin-3-yl]carbonyl}-4,5,6,7-tetrahydrothieno[2,3-c]pyridine-5-carboxylic acid], under “class symbols”, the IC50 was 0.101 to 20 µM.

Molecule `CCC[C@H]1N(C(=O)c2ncccc2C(F)(F)F)CCC[C@@]1(Oc1csc(C(F)(F)F)c1)C(=O)N1Cc2ccc(Cl)cc2C[C@@H]1CCC(=O)NC` [Compound A136, 3-[(3S)-6-chloro-2-{[(2R,3S)-2-propyl-1-{[3-(trifluoromethyl)pyridin-2-yl]carbonyl}-3-{[5-(trifluoromethyl)thiophen-3-yl]oxy}piperidin-3-yl]carbonyl}-1,2,3,4-tetrahydroisoquinolin-3-yl]-N-methylpropanamide] returned an IC50 (class symbols) of 0.001 to 0.1 µM.
